# Results published in the NIST ThermoML archive (doi:10.1016/j.jct.2018.09.023).
# ± gives the expanded uncertainty stated by the source.
# Legend:
# [1] = activity coefficient (dimensionless); of the first substance listed, at infinite dilution; xn = mol fraction of the nth substance listed; settings: 101.33 kPa, Liquid, Chromatography, x1 = 0
# [2] = 101.3 kPa, Liquid, Vibrating tube method
activity coefficient ([1]; 323.15 K),activity coefficient ([1]; 333.15 K),activity coefficient ([1]; 343.15 K),activity coefficient ([1]; 353.15 K),activity coefficient ([1]; 363.15 K),mass density ([2]; 323.15 K) [kg/m3],mass density ([2]; 333.15 K) [kg/m3],mass density ([2]; 343.15 K) [kg/m3],mass density ([2]; 353.15 K) [kg/m3],mass density ([2]; 363.15 K) [kg/m3],SMILES
21.7 ± 2.3,20.6 ± 2.2,19.7 ± 2.1,18.8 ± 2,18.1 ± 1.9,–,–,–,–,–,C1=CCCCC1 [cyclohexene] + CCC[n+]1ccn(C)c1.[Br-]
82.3 ± 8.7,79.9 ± 8.4,77.5 ± 8.2,75.2 ± 7.9,73.2 ± 7.7,–,–,–,–,–,CC1CCCCC1 [methylcyclohexane] + CCC[n+]1ccn(C)c1.[Br-]
0.279 ± 0.038,0.268 ± 0.037,0.258 ± 0.036,0.25 ± 0.036,0.244 ± 0.035,–,–,–,–,–,CCCO [propan-1-ol] + CCC[n+]1ccn(C)c1.[Br-]
102 ± 11,98.9 ± 10,95.6 ± 10,92.5 ± 9.7,89.9 ± 9.5,–,–,–,–,–,CCCCCC [hexane] + CCC[n+]1ccn(C)c1.[Br-]
0.438 ± 0.05,0.417 ± 0.048,0.402 ± 0.047,0.388 ± 0.046,0.379 ± 0.045,–,–,–,–,–,CCCCO [butan-1-ol] + CCC[n+]1ccn(C)c1.[Br-]
106 ± 11,102 ± 11,98.5 ± 10,95.4 ± 10,92.5 ± 9.7,–,–,–,–,–,CCCCCCC [heptane] + CCC[n+]1ccn(C)c1.[Br-]
0.52 ± 0.057,0.5 ± 0.055,0.485 ± 0.054,0.471 ± 0.053,0.462 ± 0.052,–,–,–,–,–,CCC(C)O (stereo not given) [butan-2-ol] + CCC[n+]1ccn(C)c1.[Br-]
0.373 ± 0.044,0.359 ± 0.043,0.344 ± 0.042,0.334 ± 0.042,0.326 ± 0.041,–,–,–,–,–,CC(C)O [propan-2-ol] + CCC[n+]1ccn(C)c1.[Br-]
130 ± 14,124 ± 13,118 ± 12,112 ± 12,108 ± 11,–,–,–,–,–,CCCCCCCCCC [decane] + CCC[n+]1ccn(C)c1.[Br-]
0.27 ± 0.04,0.29 ± 0.04,0.31 ± 0.04,0.34 ± 0.04,0.38 ± 0.05,–,–,–,–,–,ClCCl [dichloromethane] + CCC[n+]1ccn(C)c1.[Br-]
111 ± 12,107 ± 11,104 ± 11,100 ± 11,97.7 ± 10,–,–,–,–,–,CCCCCCCC [octane] + CCC[n+]1ccn(C)c1.[Br-]
0.692 ± 0.072,0.651 ± 0.069,0.619 ± 0.066,0.592 ± 0.063,0.575 ± 0.062,–,–,–,–,–,CCCCCO [pentan-1-ol] + CCC[n+]1ccn(C)c1.[Br-]
0.13 ± 0.03,0.15 ± 0.03,0.16 ± 0.03,0.18 ± 0.03,0.2 ± 0.03,–,–,–,–,–,ClC(Cl)Cl [trichloromethane] + CCC[n+]1ccn(C)c1.[Br-]
2.11 ± 0.22,2.19 ± 0.23,2.28 ± 0.24,2.37 ± 0.25,2.47 ± 0.26,–,–,–,–,–,C1CCOC1 [tetrahydrofuran] + CCC[n+]1ccn(C)c1.[Br-]
3.68 ± 0.39,3.86 ± 0.41,4.07 ± 0.43,4.27 ± 0.45,4.46 ± 0.47,–,–,–,–,–,CCOC(C)=O [ethyl acetate] + CCC[n+]1ccn(C)c1.[Br-]
1.7 ± 0.18,1.79 ± 0.19,1.89 ± 0.2,2 ± 0.21,2.11 ± 0.22,–,–,–,–,–,c1ccccc1 [benzene] + CCC[n+]1ccn(C)c1.[Br-]
0.62 ± 0.066,0.587 ± 0.063,0.564 ± 0.061,0.548 ± 0.059,0.531 ± 0.058,–,–,–,–,–,CC(C)CCO [3-methylbutan-1-ol] + CCC[n+]1ccn(C)c1.[Br-]
0.208 ± 0.033,0.197 ± 0.033,0.19 ± 0.032,0.184 ± 0.032,0.18 ± 0.032,–,–,–,–,–,CCO [ethanol] + CCC[n+]1ccn(C)c1.[Br-]
–,–,–,–,–,1317.74 ± 2.5,1310.86 ± 2.5,1304.04 ± 2.4,1297.27 ± 2.4,1290.33 ± 2.4,CCC[n+]1ccn(C)c1.[Br-] [1-methyl-3-propylimidazolium bromide]
0.37 ± 0.04,0.39 ± 0.05,0.41 ± 0.05,0.44 ± 0.05,0.48 ± 0.05,–,–,–,–,–,CC#N [acetonitrile] + CCC[n+]1ccn(C)c1.[Br-]
66.2 ± 7,64.5 ± 6.8,62.9 ± 6.6,61.6 ± 6.5,60.4 ± 6.4,–,–,–,–,–,C1CCCCC1 [cyclohexane] + CCC[n+]1ccn(C)c1.[Br-]
0.112 ± 0.03,0.108 ± 0.03,0.106 ± 0.03,0.103 ± 0.03,0.102 ± 0.03,–,–,–,–,–,CO [methanol] + CCC[n+]1ccn(C)c1.[Br-]
1.01 ± 0.1,1.05 ± 0.11,1.11 ± 0.11,1.17 ± 0.12,1.23 ± 0.13,–,–,–,–,–,"C1COCCO1 [1,4-dioxane] + CCC[n+]1ccn(C)c1.[Br-]"
5.48 ± 0.58,5.67 ± 0.6,5.84 ± 0.61,6.01 ± 0.63,6.19 ± 0.65,–,–,–,–,–,CCc1ccccc1 [ethylbenzene] + CCC[n+]1ccn(C)c1.[Br-]
0.426 ± 0.049,0.406 ± 0.047,0.39 ± 0.046,0.378 ± 0.045,0.368 ± 0.044,–,–,–,–,–,CC(C)CO [2-methyl-1-propanol] + CCC[n+]1ccn(C)c1.[Br-]
1.83 ± 0.19,1.92 ± 0.2,2 ± 0.21,2.08 ± 0.22,2.17 ± 0.23,–,–,–,–,–,C=Cc1ccccc1 [styrene] + CCC[n+]1ccn(C)c1.[Br-]
119 ± 13,115 ± 12,110 ± 12,106 ± 11,103 ± 11,–,–,–,–,–,CCCCCCCCC [nonane] + CCC[n+]1ccn(C)c1.[Br-]
115 ± 12,111 ± 12,108 ± 11,104 ± 11,101 ± 11,–,–,–,–,–,"CC(C)CC(C)(C)C [2,2,4-trimethylpentane] + CCC[n+]1ccn(C)c1.[Br-]"

SMILES,activity coefficient ([1]; 323.15 K),activity coefficient ([1]; 333.15 K),activity coefficient ([1]; 343.15 K),activity coefficient ([1]; 353.15 K),activity coefficient ([1]; 363.15 K),mass density ([2]; 323.15 K) [kg/m3],mass density ([2]; 333.15 K) [kg/m3],mass density ([2]; 343.15 K) [kg/m3],mass density ([2]; 353.15 K) [kg/m3],mass density ([2]; 363.15 K) [kg/m3]
"Cc1ccc(C)cc1 [1,4-dimethylbenzene] + CCC[n+]1ccn(C)c1.[Br-]",5.65 ± 0.59,5.8 ± 0.61,5.95 ± 0.63,6.11 ± 0.64,6.3 ± 0.66,–,–,–,–,–
"Cc1cccc(C)c1 [1,3-dimethylbenzene] + CCC[n+]1ccn(C)c1.[Br-]",5.91 ± 0.62,6.04 ± 0.63,6.18 ± 0.65,6.33 ± 0.67,6.47 ± 0.68,–,–,–,–,–
Cc1ccccc1 [toluene] + CCC[n+]1ccn(C)c1.[Br-],2.95 ± 0.31,3.11 ± 0.33,3.33 ± 0.35,3.5 ± 0.37,3.72 ± 0.39,–,–,–,–,–
ClC(Cl)(Cl)Cl [tetrachloromethane] + CCC[n+]1ccn(C)c1.[Br-],0.78 ± 0.08,0.86 ± 0.09,0.96 ± 0.1,1.07 ± 0.11,1.17 ± 0.12,–,–,–,–,–
CC(C)=O [acetone] + CCC[n+]1ccn(C)c1.[Br-],1.06 ± 0.11,1.14 ± 0.12,1.21 ± 0.12,1.29 ± 0.13,1.37 ± 0.14,–,–,–,–,–
"Cc1ccccc1C [1,2-dimethylbenzene] + CCC[n+]1ccn(C)c1.[Br-]",4.19 ± 0.44,4.3 ± 0.45,4.49 ± 0.47,4.71 ± 0.49,4.97 ± 0.52,–,–,–,–,–
